Assays:
APJ–GRK5 interaction = assay: BRET recruitment of GRK5 to APJ; assay type: cell-based; conditions: for log (τ/KA) / Δlog (τ/KA): GRK5; for log (τ/KA): Black–Leff operational model; for Δlog (τ/KA): relative to Apelin-13; for Bias factor / Log (Bias): GRK5 over Ca2+, reference Apelin-13; for Log (Bias): footnote a = statistically insignificant
Description: To detect the potencies of different peptide ligands for APJ in living cells, real-time kinetic bioluminescence resonance energy transfer (BRET) assays were carried out as follows. HEK293 cells were grown to 80–90% confluence in 24-well plates and transiently transfected with various Rluc-, EYFP-, or Venus-tagged constructs ([Chen et al., 2014]; [Liu et al., 2016]). Approximately 36 h after transfection, the long-acting luciferase substrate EnduRen (E6481, Promega, Beijing Biotech Co., Ltd.) was added to each well at a final concentration of 60 μM and cells were incubated for 2 h at 37°C in a 5% CO2 incubator. BRET experiments were carried out using a Mithras LB941 plate reader (Berthold Technologies, Bad Wildbad, Germany) with three filters: a Rluc filter (400–475 nm), a Venus filter (515–575 nm) and an EGFP filter (500–550 nm) ([Liu et al., 2016]; [Ji et al., 2017]). The BRET ratio was calculated as the ratio of the emission at 535 ± 30 nm to that at 485 ± 20 nm. The results are expressed as the mBRET (mBRET = 1,000 × BRET ratio) ([Pfleger et al., 2006a]; [Pfleger et al., 2006b]). We use high glucose as a negative control group.
HEK293 cells were transiently co-transfected with the designated Rluc and GFP2 or Venus or EYFP-labeled constructs. Twenty-four hours after transfection, the cells were harvested in phenol red free medium containing 5% FCS in HEPES buffer and seeded in 96 well white microplate coated with poly-D-lysine. After 24 h, cells were washed twice in PBS and re-suspended in PBS containing 0.5 mM MgCl2 and 0.1% glucose. Coelenterazine h substrate was added at a final concentration of 5 μM in the total volume of 50 μL/well. Kinetic-response and dose-response curve of the recruitment of GRKs or β-arrestin 1 and β-arrestin 2 or AP2 to the APJ by six peptides measured by BRET. […] The BRET signals between receptor and GRKs/β-arrestin1 and 2/AP2 were recorded at 10 min (GRK2/5) or 15 min (β-arrestin1 and) or 30 min (AP2) after agonist stimulation. We use high glucose as a control group. BRET assays were performed as described previously ([Xue et al., 2018]). […] This signal is defined as the ligand induced BRET ratio.
The concentration-response data for the ligands in various assays were analyzed to determine the biases of the ligands for G protein dependent signaling or β-arrestin dependent signaling, according to a previously published method ([Kenakin et al., 2012]; [Hager et al., 2016]; [Hothersall et al., 2017]). Briefly, the concentration-response data for each ligand were fitted to the Black–Leff operation model to obtain the values of τ and K A, using the following equation: Response=[A]^nτ^nEm/[A]^nτ^n+([A]KA)^n where [A] is the concentration of the agonist, E m is the maximal response of the system, n is the transducer slope, and K A and τ describe the affinity and efficacy of the agonist, respectively. In the data fitting, the reparametrized form of the equation proposed by [Kenakin et al. (2012)] was used: Response=Em/1+exp{nln[1+exp(β1)/[A]]−nβ2} where β 1 and β 2 are the natural logarithm of K A and τ, respectively, and E m was set to 1. Thus, for each concentration-response curve, a non-linear regression was performed to fit the above equation to give β 1 and β 2 (as well as n). Log (τ/K A) values (“transduction coefficients”) for each ligand vs. each pathway were obtained. […] The ΔΔlog (τ/K A), or Log (Bias), which is the logarithm of the bias factor for a given pathway over a reference pathway (here, intracellular calcium release), was calculated for each ligand as Δlog (τ/K A)–Δlog (τ/K A)Calcium. The 95% confidence interval (CI) was expressed as the mean ± standard error; Log (Bias) values, whose 95% CI crosses 0, were considered statistically insignificant.
The data were analyzed using GraphPad Prism v5.0. All the data are presented as the mean ± SEM.

APJ (Apelin receptor) = molecular target: T1, APJ (Apelin receptor) (Homo sapiens, UniProt P35414); assay: Radioligand competition binding assay, [125I]-apelin-13, HEK-293/APJ membranes; parameters: APJ membrane preparations were obtained from transiently transfected HEK293 cells; host or cells: HEK293 cells, transiently transfected; membranes prepared; conditions: [125I]-apelin-13 competition
T1 sequence (P35414 1-380): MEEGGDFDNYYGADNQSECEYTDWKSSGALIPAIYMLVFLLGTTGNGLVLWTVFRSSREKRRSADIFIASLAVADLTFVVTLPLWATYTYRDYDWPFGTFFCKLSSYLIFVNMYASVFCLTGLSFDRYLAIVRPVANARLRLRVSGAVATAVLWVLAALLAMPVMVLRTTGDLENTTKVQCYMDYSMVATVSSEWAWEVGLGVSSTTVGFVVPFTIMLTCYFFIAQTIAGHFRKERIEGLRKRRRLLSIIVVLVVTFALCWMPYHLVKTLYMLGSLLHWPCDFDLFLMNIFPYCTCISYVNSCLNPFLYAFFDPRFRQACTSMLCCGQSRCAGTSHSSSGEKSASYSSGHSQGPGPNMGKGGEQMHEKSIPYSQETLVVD
Description: APJ membrane preparations were obtained from transiently transfected HEK293 cells. HEK293 cells were cultured in complete DMEM (DMEM plus 10% FBS) for 24 h, until they reached at least 70% confluence. Transfection reagent containing 20 μg of the APJ expression plasmid was added, and the cells were incubated for another 24 h. The cells were then harvested into 25 ml homogenization buffer (HB) [250 mM sucrose and 25 mM HEPES (pH 7.3); adjusted to pH 7.5 at 4°C and then filtered] supplemented with 250 μL phenylmethylsulfonyl fluoride (PMSF), homogenized using an IKA T25 Ultra Turrax (24,000 rpm), and centrifuged at 6,025 rpm for 15 min at 4°C. […]
The binding reaction was stopped by rapid filtration through polyethyleneimine (PEI)-coated GF/B plates using a cell harvester, and the plates were washed three times with ice-cold wash buffer [50 mM HEPES (pH 7.4), 500 mM NaCl, and 0.1% BSA; filtered and stored at 4°C]. The filtration plates were dried at 37°C for 2 h; 50 μL scintillation cocktail (Perkin Elmer, Wellesley, MA, United States), was added to each well; and the radioactivity was measured using a Perkin Elmer 1450 MicroBeta TriLux Microplate Scintillation and Luminescence Counter.
The binding reaction was stopped, the plates were washed and dried, the scintillation cocktail was added, and the radioactivity was measured as described above.

| Structure (SMILES) | log (τ/KA) (APJ–GRK5 interaction) | Δlog (τ/KA) (APJ–GRK5 interaction) | Bias factor (APJ–GRK5 interaction) | Log (Bias) (APJ–GRK5 interaction) | binding affinity (in words) (APJ (Apelin receptor)) | bias over calcium release (APJ–GRK5 interaction; APJ–GRK5) | Log (Bias) (APJ–GRK5 interaction; listed as ELA-32) |
| --- | --- | --- | --- | --- | --- | --- | --- |
| CSCC[C@H](NC(=O)[C@@H]1CSSC[C@H](NC(=O)[C@H](CC(N)=O)NC(=O)[C@H](Cc2c[nH]cn2)NC(=O)[C@H](CCCCN)NC(=O)[C@H](CCCNC(=N)N)NC(=O)[C@@H](N)CC(C)C)C(=O)N[C@@H](CC(C)C)C(=O)N[C@@H](CCC(N)=O)C(=O)N[C@@H](CCCNC(=N)N)C(=O)N[C@@H](CCCNC(=N)N)C(=O)N1)C(=O)N1CCC[C@H]1C(=O)N[C@@H](CC(C)C)C(=O)N[C@@H](Cc1c[nH]cn1)C(=O)N[C@@H](CO)C(=O)N[C@@H](CCCNC(=N)N)C(=O)N[C@H](C(=O)N1CCC[C@H]1C(=O)N[C@@H](Cc1ccccc1)C(=O)N1CCC[C@H]1C(=O)O)C(C)C [Elabela-21] | −1.9 ± 0.3 | 0.5 ± 0.4 | 124.1 | 2.1 ± 0.5 | slightly weaker binding affinity than Elabela-32 |  |  |
| CSCC[C@H](NC(=O)[C@@H](NC(=O)[C@H](CC(C)C)NC(=O)[C@H](CC(N)=O)NC(=O)[C@@H](NC(=O)[C@@H]1CCCN1C(=O)[C@H](CCCNC(=N)N)NC(=O)[C@@H](N)CCC(N)=O)C(C)C)[C@@H](C)O)C(=O)N[C@@H](CCCNC(=N)N)C(=O)N[C@@H](CCCNC(=N)N)C(=O)N[C@@H](CCCCN)C(=O)N[C@@H](CC(C)C)C(=O)N[C@@H](CCCNC(=N)N)C(=O)N[C@@H](CCCCN)C(=O)N[C@@H](Cc1c[nH]cn1)C(=O)N[C@@H](CC(N)=O)C(=O)N[C@H]1CSSC[C@@H](C(=O)N[C@@H](CCSC)C(=O)N2CCC[C@H]2C(=O)N[C@@H](CC(C)C)C(=O)N[C@@H](Cc2c[nH]cn2)C(=O)N[C@@H](CO)C(=O)N[C@@H](CCCNC(=N)N)C(=O)N[C@H](C(=O)N2CCC[C@H]2C(=O)N[C@@H](Cc2ccccc2)C(=O)N2CCC[C@H]2C(=O)O)C(C)C)NC(=O)[C@H](CCCNC(=N)N)NC(=O)[C@H](CCCNC(=N)N)NC(=O)[C@H](CCC(N)=O)NC(=O)[C@H](CC(C)C)NC1=O [Elabela-32] | −0.3 ± 0.3 | 2.1 ± 0.4 | 8,921.8 | 4.0 |  | > 6,000 fold | 4.0 ± 0.5 |

Source: publication PMC7970304, “The Effects of Apelin and Elabela Ligands on Apelin Receptor Distinct Signaling Profiles” (Frontiers in Pharmacology, 2021)
